ChEMBL document CHEMBL3044896, “A facile route for the synthesis 1,4-disubstituted tetrazolone derivatives and evaluation of their antimicrobial activity” (2013)

Key:
[1] = test system: Bacillus subtilis; assay: Antibacterial activity against Bacillus subtilis ATCC 6633 at 100 ug/ml after 18 to 24 hr by agar well diffusion method; assay type: functional; settings: read-out: IZ
[2] = test system: Klebsiella aerogenes; assay: Antibacterial activity against Enterobacter aerogenes NCIM 5139 at 100 ug/ml after 18 to 24 hr by agar well diffusion method; assay type: functional; settings: read-out: IZ
[3] = test system: Escherichia coli; assay: Antibacterial activity against Escherichia coli ATCC 2343 at 100 ug/ml after 18 to 24 hr by agar well diffusion method; assay type: functional; settings: read-out: IZ
[4] = test system: Staphylococcus aureus; assay: Antibacterial activity against Staphylococcus aureus ATCC 29737 at 100 ug/ml after 18 to 24 hr by agar well diffusion method; assay type: functional; settings: read-out: IZ
[5] = test system: Aspergillus niger; assay: Antifungal activity against Aspergillus niger at 100 ug/ml after 48 hr by agar well diffusion method; assay type: functional; settings: read-out: IZ
[6] = test system: Candida albicans; assay: Antifungal activity against Candida albicans at 100 ug/ml after 48 hr by agar well diffusion method; assay type: functional; settings: read-out: IZ
[7] = test system: Escherichia coli; assay: microbe, parasite or virus in culture; settings: ATCC 2343, read-out: IZ
Description: Antibacterial activity against Escherichia coli ATCC 2343 at 40 ug/ml after 18 to 24 hr by agar well diffusion method

[8] = test system: Bacillus subtilis; assay: microbe, parasite or virus in culture; settings: ATCC 6633, read-out: IZ
Description: Antibacterial activity against Bacillus subtilis ATCC 6633 at 40 ug/ml after 18 to 24 hr by agar well diffusion method

[9] = test system: Staphylococcus aureus; assay: microbe, parasite or virus in culture; settings: ATCC 29737, read-out: IZ
Description: Antibacterial activity against Staphylococcus aureus ATCC 29737 at 40 ug/ml after 18 to 24 hr by agar well diffusion method

[10] = test system: Klebsiella aerogenes; assay: Antibacterial activity against Enterobacter aerogenes NCIM 5139 at 40 ug/ml after 18 to 24 hr by agar well diffusion method; assay type: functional; settings: read-out: IZ
[11] = test system: Candida albicans; assay: Antifungal activity against Candida albicans at 30 ug/ml after 48 hr by agar well diffusion method; assay type: functional; settings: read-out: IZ
[12] = test system: Aspergillus niger; assay: Antifungal activity against Aspergillus niger at 30 ug/ml after 48 hr by agar well diffusion method; assay type: functional; settings: read-out: IZ

| SMILES | zone of inhibition at 100 µg/mL [1] [mm] | zone of inhibition at 100 µg/mL [2] [mm] | zone of inhibition at 100 µg/mL [3] [mm] | zone of inhibition at 100 µg/mL [4] [mm] | zone of inhibition at 100 µg/mL [5] [mm] | zone of inhibition at 100 µg/mL [6] [mm] | zone of inhibition at 40 µg/mL [7] [mm] | zone of inhibition at 40 µg/mL [8] [mm] | zone of inhibition at 40 µg/mL [9] [mm] | zone of inhibition at 40 µg/mL [10] [mm] | zone of inhibition at 30 µg/mL [11] [mm] | zone of inhibition at 30 µg/mL [12] [mm] |
| --- | --- | --- | --- | --- | --- | --- | --- | --- | --- | --- | --- | --- |
| CCOC(=O)/C(=C/c1ccc(Cl)cc1)Cn1nnn(-c2ccc(C(F)(F)F)cc2)c1=O | 15 | 11 | 9 | 15 | 9 |  |  |  |  |  |  |  |
| COC(=O)/C(=C/c1ccc([N+](=O)[O-])cc1)Cn1nnn(-c2ccc(OC)cc2)c1=O | 10 | 8 | 6 | 12 |  |  |  |  |  |  |  |  |
| COC(=O)/C(=C/c1ccc([N+](=O)[O-])cc1)Cn1nnn(-c2ccc(C(F)(F)F)cc2)c1=O | 10 | 8 | 6 | 12 | 11 | 12 |  |  |  |  |  |  |
| COC(=O)/C(=C/c1ccc(OC)cc1)Cn1nnn(-c2ccc(OC)cc2)c1=O | 16 |  |  | 17 | 16 | 17 |  |  |  |  |  |  |
| COC(=O)/C(=C/c1ccc(OC)c(OC)c1)Cn1nnn(-c2ccc(OC)cc2)c1=O |  | 17 | 9 |  |  |  |  |  |  |  |  |  |
| COc1ccc(-n2nnn(C/C(C#N)=C/c3ccccc3)c2=O)cc1 | 12 | 11 | 7 | 17 | 6 | 9 |  |  |  |  |  |  |
| N#C/C(=C\c1ccccc1)Cn1nnn(-c2ccc(C(F)(F)F)cc2)c1=O | 23 | 19 | 9 | 22 | 16 | 15 |  |  |  |  |  |  |
| N#C/C(=C\c1ccc(Cl)cc1)Cn1nnn(-c2ccc(C(F)(F)F)cc2)c1=O | 7 | 14 | 7 | 13 | 5 |  |  |  |  |  |  |  |
| Cc1ccc(/C=C(\C#N)Cn2nnn(-c3ccccc3)c2=O)cc1 | 16 | 14 | 8 | 17 | 4 | 7 |  |  |  |  |  |  |
| COc1ccc(-n2nnn(C/C(C#N)=C/c3ccc(C)cc3)c2=O)cc1 | 16 | 16 | 14 | 19 | 15 | 19 |  |  |  |  |  |  |
| Cc1ccc(/C=C(\C#N)Cn2nnn(-c3ccc(C(F)(F)F)cc3)c2=O)cc1 |  | 6 | 3 |  |  |  |  |  |  |  |  |  |
| COc1ccc(/C=C(\C#N)Cn2nnn(-c3ccc(OC)cc3)c2=O)cc1 | 18 | 19 | 14 | 21 | 14 | 16 |  |  |  |  |  |  |
| COc1ccc(/C=C(\C#N)Cn2nnn(-c3ccc(C(F)(F)F)cc3)c2=O)cc1 | 11 | 12 | 5 | 16 | 11 | 16 |  |  |  |  |  |  |
| COc1ccc(-n2nnn(C/C(C#N)=C/c3ccc(OC)c(OC)c3)c2=O)cc1 | 11 | 16 | 7 | 21 |  | 4 |  |  |  |  |  |  |
| COc1ccc(/C=C(\C#N)Cn2nnn(-c3ccc(C(F)(F)F)cc3)c2=O)cc1OC | 14 | 12 | 7 | 16 | 10 | 16 |  |  |  |  |  |  |
| COC(=O)/C(=C/c1ccc(F)cc1)Cn1nnn(-c2ccccc2)c1=O | 6 | 3 | 4 | 7 | 3 |  |  |  |  |  |  |  |
| COC(=O)/C(=C/c1ccc(F)cc1)Cn1nnn(-c2ccc(OC)cc2)c1=O | 19 | 15 | 18 | 15 | 18 | 17 |  |  |  |  |  |  |
| COC(=O)/C(=C/c1ccc(Cl)cc1)Cn1nnn(-c2ccc(OC)cc2)c1=O | 14 | 6 | 5 | 7 |  | 5 |  |  |  |  |  |  |
| CCOC(=O)/C(=C/c1ccc(Cl)cc1)Cn1nnn(-c2ccc(OC)cc2)c1=O | 20 |  |  | 22 | 11 | 12 |  |  |  |  |  |  |
| CCOC(=O)/C(=C/c1ccc(Cl)cc1)Cn1nnn(-c2ccccc2)c1=O | 20 | 17 | 19 | 23 | 16 | 18 |  |  |  |  |  |  |
| O=C(O)c1cn(C2CC2)c2cc(N3CCNCC3)c(F)cc2c1=O [CIPROFLOXACIN] |  |  |  |  |  |  | 18 | 10 | 22 | 24 |  |  |
| CCC(C)n1ncn(-c2ccc(N3CCN(c4ccc(OCC5COC(Cn6cncn6)(c6ccc(Cl)cc6Cl)O5)cc4)CC3)cc2)c1=O (configuration not stated) [ITRACONAZOLE] |  |  |  |  |  |  |  |  |  |  | 20 | 17 |
